Results published in ChEMBL document CHEMBL1201861, “Genomics of Drug Sensitity in Cancer screening data, Wellcome Trust Sanger Institute”.

What was measured:
Experiment in all cases: cells
CTB-1 = type: functional, cell-based, Homo sapiens; settings: Homo sapiens, CTB-1
Description: SANGER: Inhibition of human CTB-1 cell growth in a cell viability assay.

Calu-6 = type: functional, cell-based, Homo sapiens; settings: Homo sapiens, Calu-6;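 note: growth of human Calu-6 cells, read out by a cell viability assay, IC50 marking inhibition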
Description: SANGER: Inhibition of human Calu-6 cell growth in a cell viability assay.

D-502MG = type: functional, cell-based, Homo sapiens; settings: Homo sapiens, D-502MG
Description: SANGER: Inhibition of human D-502MG cell growth in a cell viability assay.

DB = type: functional, cell-based, Homo sapiens; settings: Homo sapiens, DB
Description: SANGER: Inhibition of human DB cell growth in a cell viability assay.

DEL = type: functional, cell-based, Homo sapiens; settings: Homo sapiens, DEL;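 note: growth inhibition of the human DEL cell line, read out with a cell viability assay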
Description: SANGER: Inhibition of human DEL cell growth in a cell viability assay.

EM-2 = type: functional, cell-based, Homo sapiens; settings: Homo sapiens, EM-2;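 note: growth inhibition of EM-2 cells, read out with a cell viability assay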
Description: SANGER: Inhibition of human EM-2 cell growth in a cell viability assay.

ES5 = type: functional, cell-based, Homo sapiens; settings: Homo sapiens, ES5;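 note: growth inhibition of human ES5 cells, read out by a cell viability assay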
Description: SANGER: Inhibition of human ES5 cell growth in a cell viability assay.

ES6 = type: functional, cell-based; settings: Homo sapiens;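 note: growth inhibition of human ES6 cells, read out with a cell viability assay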
Description: SANGER: Inhibition of human ES6 cell growth in a cell viability assay.

ES8 = type: functional, cell-based, Homo sapiens; settings: Homo sapiens, ES8;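 note: growth inhibition of human ES8 cells, read out with a cell viability assay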
Description: SANGER: Inhibition of human ES8 cell growth in a cell viability assay.

EW-13 = type: functional, cell-based, Homo sapiens; settings: Homo sapiens, EW-13; read-out: IC50;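 note: growth inhibition of EW-13 cells, read out with a cell viability assay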
Description: SANGER: Inhibition of human EW-13 cell growth in a cell viability assay.

GAK = type: functional, cell-based, Homo sapiens; settings: Homo sapiens, GAK;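 note: cell growth inhibition read out by a cell viability assay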
Description: SANGER: Inhibition of human GAK cell growth in a cell viability assay.

HDLM-2 = type: functional, cell-based, Homo sapiens; settings: Homo sapiens, HDLM-2;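 note: cell viability assay measuring suppression of HDLM-2 proliferation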
Description: SANGER: Inhibition of human HDLM-2 cell growth in a cell viability assay.

HT-144 = type: functional, cell-based, Homo sapiens; settings: Homo sapiens, HT-144
Description: SANGER: Inhibition of human HT-144 cell growth in a cell viability assay.

IST-MEL1 = type: functional, cell-based, Homo sapiens; settings: Homo sapiens, IST-MEL1;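 note: growth inhibition of the cell line, read out with a cell viability assay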
Description: SANGER: Inhibition of human IST-MEL1 cell growth in a cell viability assay.

K5 = type: functional, cell-based, Homo sapiens; settings: Homo sapiens, K5
Description: SANGER: Inhibition of human K5 cell growth in a cell viability assay.

L-428 = type: functional, cell-based, Homo sapiens; settings: Homo sapiens, L-428
Description: SANGER: Inhibition of human L-428 cell growth in a cell viability assay.

LB2518-MEL = type: functional, cell-based; settings: Homo sapiens;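 note: growth inhibition of human LB2518-MEL cells, measured with a cell viability assay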
Description: SANGER: Inhibition of human LB2518-MEL cell growth in a cell viability assay.

LB831-BLC = type: functional, cell-based, Homo sapiens; settings: Homo sapiens, LB831-BLC;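 note: growth inhibition of LB831-BLC cells, read out with a cell viability assay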
Description: SANGER: Inhibition of human LB831-BLC cell growth in a cell viability assay.

LS-123 = type: functional, cell-based, Homo sapiens; settings: Homo sapiens, LS-123
Description: SANGER: Inhibition of human LS-123 cell growth in a cell viability assay.

LXF-289 cell line = type: functional, cell-based; settings: Homo sapiens
Description: SANGER: Inhibition of human LXF-289 cell growth in a cell viability assay.

MEG-01 = type: functional, cell-based, Homo sapiens; settings: Homo sapiens, MEG-01;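 note: growth inhibition of MEG-01 cells, read out by a cell viability assay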
Description: SANGER: Inhibition of human MEG-01 cell growth in a cell viability assay.

MHH-NB-11 = type: functional, cell-based, Homo sapiens; settings: Homo sapiens, MHH-NB-11;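 note: growth inhibition of human MHH-NB-11 cells, read out by a cell viability assay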
Description: SANGER: Inhibition of human MHH-NB-11 cell growth in a cell viability assay.

ML-2 = type: functional, cell-based, Homo sapiens; settings: Homo sapiens, ML-2;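 note: growth inhibition of ML-2 cells, measured with a cell viability readout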
Description: SANGER: Inhibition of human ML-2 cell growth in a cell viability assay.

MOLT-4 = type: functional, cell-based, Homo sapiens; settings: Homo sapiens, MOLT-4;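 note: growth inhibition of MOLT-4 cells, determined with a cell viability readout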
Description: SANGER: Inhibition of human MOLT-4 cell growth in a cell viability assay.

MS-1 = type: functional, cell-based, Homo sapiens; settings: Homo sapiens, MS-1
Description: SANGER: Inhibition of human MS-1 cell growth in a cell viability assay.

NB13 = type: functional, cell-based, Homo sapiens; settings: Homo sapiens, NB13;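 note: cell viability readout measuring growth inhibition of human NB13 cells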
Description: SANGER: Inhibition of human NB13 cell growth in a cell viability assay.

NB69 = type: functional, cell-based, Homo sapiens; settings: Homo sapiens, NB69;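 note: growth inhibition of NB69 cells, determined by a cell viability assay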
Description: SANGER: Inhibition of human NB69 cell growth in a cell viability assay.

NCI-H209 = type: functional, cell-based, Homo sapiens; settings: Homo sapiens, NCI-H209;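 note: growth inhibition of human NCI-H209 cells, measured by a cell viability assay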
Description: SANGER: Inhibition of human NCI-H209 cell growth in a cell viability assay.

NCI-H82 = type: functional, cell-based, Homo sapiens; settings: Homo sapiens, NCI-H82;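 note: growth inhibition of NCI-H82 cells, measured with a cell viability readout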
Description: SANGER: Inhibition of human NCI-H82 cell growth in a cell viability assay.

NMC-G1 = type: functional, cell-based, Homo sapiens; settings: Homo sapiens, NMC-G1;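 note: growth inhibition of the NMC-G1 cell line, measured with a cell viability read-out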
Description: SANGER: Inhibition of human NMC-G1 cell growth in a cell viability assay.

NTERA-2-cl-D1 = type: functional, cell-based, Homo sapiens; settings: Homo sapiens, NTERA-2-cl-D1;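 note: inhibition of cell growth, measured with a cell viability assay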
Description: SANGER: Inhibition of human NTERA-S-cl-D1 cell growth in a cell viability assay.

Ramos-2G6-4C10 = type: functional, cell-based, Homo sapiens; settings: Homo sapiens, Ramos-2G6-4C10;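 note: growth inhibition of the cell line, measured by a cell viability read-out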
Description: SANGER: Inhibition of human Ramos-2G6-4C10 cell growth in a cell viability assay.

SF-539 = type: functional, cell-based, Homo sapiens; settings: Homo sapiens, SF-539;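 note: Read-out is a cell viability assay, with IC50 reflecting inhibition of cell growth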
Description: SANGER: Inhibition of human SF539 cell growth in a cell viability assay.

SHP77 = type: functional, cell-based, Homo sapiens, SHP-77; settings: Homo sapiens, SHP77;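 note: growth inhibition of human SHP-77 cells measured by a cell viability assay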
Description: SANGER: Inhibition of human SHP-77 cell growth in a cell viability assay.

SJSA-1 = type: functional, cell-based, Homo sapiens; settings: Homo sapiens, SJSA-1;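 note: growth inhibition of human SJSA-1 cells, read out through a cell viability measurement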
Description: SANGER: Inhibition of human SJSA-1 cell growth in a cell viability assay.

SK-LMS-1 = type: functional, cell-based, Homo sapiens; settings: Homo sapiens, SK-LMS-1;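 note: growth inhibition of human SK-LMS-1 cells, read out with a cell viability assay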
Description: SANGER: Inhibition of human SK-LMS-1 cell growth in a cell viability assay.

SNB-75 = type: functional, cell-based, Homo sapiens; settings: Homo sapiens, SNB-75;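 note: cell viability assay measuring growth inhibition of human SNB-75 cells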
Description: SANGER: Inhibition of human SNB75 cell growth in a cell viability assay.

SW684 = type: functional, cell-based, Homo sapiens; settings: Homo sapiens, SW684; read-out: IC50;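 note: growth inhibition of human SW684 cells, measured by a cell viability assay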
Description: SANGER: Inhibition of human SW684 cell growth in a cell viability assay.

SW 954 = type: functional, cell-based, Homo sapiens; settings: Homo sapiens, SW 954;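 note: growth inhibition of SW954 human cancer cells, read out as cell viability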
Description: SANGER: Inhibition of human SW954 cell growth in a cell viability assay.

SW982 = type: functional, cell-based; settings: Homo sapiens;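 note: growth inhibition of SW982 cells, read out with a cell viability assay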
Description: SANGER: Inhibition of human SW982 cell growth in a cell viability assay.

TE-1 = type: functional, cell-based, Homo sapiens; settings: Homo sapiens, TE-1;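 note: growth inhibition of the human TE-1 cell line, read out with a cell viability assay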
Description: SANGER: Inhibition of human TE-1 cell growth in a cell viability assay.

A3-KAW = type: functional, cell-based, Homo sapiens; settings: Homo sapiens, A3-KAW;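 note: growth inhibition of human A3-KAW cells, read out with a cell viability assay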
Description: SANGER: Inhibition of human A3-KAW cell growth in a cell viability assay.

A388 = type: functional, cell-based; settings: Homo sapiens;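 note: growth inhibition of human A388 cells, read out with a cell viability assay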
Description: SANGER: Inhibition of human A388 cell growth in a cell viability assay.

A704 = type: functional, cell-based; settings: Homo sapiens;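 note: growth inhibition of human A704 cells, read out with a cell viability assay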
Description: SANGER: Inhibition of human A704 cell growth in a cell viability assay.

AM-38 = type: functional, cell-based, Homo sapiens; settings: Homo sapiens, AM-38;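 note: growth inhibition of AM-38 cells of human origin, read out by a cell viability assay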
Description: SANGER: Inhibition of human AM-38 cell growth in a cell viability assay.

Becker = type: functional, cell-based, Homo sapiens; settings: Homo sapiens, Becker;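 note: growth inhibition of Becker cells, read out with a cell viability assay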
Description: SANGER: Inhibition of human Becker cell growth in a cell viability assay.

TE-6 = type: functional, cell-based, Homo sapiens; settings: Homo sapiens, TE-6;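 note: growth inhibition of TE-6 cells, read out with a cell viability assay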
Description: SANGER: Inhibition of human TE-6 cell growth in a cell viability assay.

TE-9 = type: functional, cell-based, Homo sapiens; settings: Homo sapiens, TE-9;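 note: cell growth inhibition, measured with a cell viability readout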
Description: SANGER: Inhibition of human TE-9 cell growth in a cell viability assay.

TK-10 = type: functional, cell-based, Homo sapiens; settings: Homo sapiens, TK-10;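 note: growth inhibition of TK-10 cells, read out in a cell viability assay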
Description: SANGER: Inhibition of human TK10 cell growth in a cell viability assay.

LB996-RCC = type: functional, cell-based, Homo sapiens; settings: Homo sapiens, LB996-RCC
Description: SANGER: Inhibition of human LB996-RCC cell growth in a cell viability assay.

TGW = type: functional, cell-based, Homo sapiens; settings: Homo sapiens, TGW;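 note: growth inhibition of human TGW cells, read out with a cell viability assay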
Description: SANGER: Inhibition of human TGW cell growth in a cell viability assay.

In the case of NC(=O)Nc1cc(-c2cccc(F)c2)sc1C(=O)N[C@H]1CCCNC1 [AZD-7762], the IC50 (CTB-1) is reported as 133 nM, the IC50 (Calu-6) is reported as 1410 nM and the IC50 (D-502MG) is reported as over 2000 nM. For the same molecule, the IC50 (DB) was 1700 nM, the IC50 (DEL) was 45.9 nM and the IC50 (EM-2) was 99 nM. The IC50 (ES5) was 135 nM, the IC50 (ES6) was 442 nM and the IC50 (ES8) was 99.2 nM. For the same molecule, the IC50 (EW-13) was over 2000 nM, the IC50 (GAK) was 1050 nM and the IC50 (HDLM-2) was 813 nM. It also gave an IC50 (HT-144) of 338 nM, an IC50 (IST-MEL1) of 226 nM and an IC50 (K5) of 941 nM. For the same molecule, the IC50 (L-428) was over 2000 nM, the IC50 (LB2518-MEL) was over 2000 nM and the IC50 (LB831-BLC) was over 2000 nM. The IC50 (LS-123) was 1810 nM, the IC50 (LXF-289 cell line) was 676 nM and the IC50 (MEG-01) was 346 nM. For the same molecule, the IC50 (MHH-NB-11) was 390 nM, the IC50 (ML-2) was 125 nM and the IC50 (MOLT-4) was 239 nM. The IC50 (MS-1) was over 2000 nM, the IC50 (NB13) was 537 nM and the IC50 (NB69) was 705 nM. For the same molecule, the IC50 (NCI-H209) was 324 nM, the IC50 (NCI-H82) was over 2000 nM and the IC50 (NMC-G1) was 986 nM. The IC50 (NTERA-2-cl-D1) was over 2000 nM, the IC50 (Ramos-2G6-4C10) was 148 nM and the IC50 (SF-539) was 137 nM. For the same molecule, the IC50 (SHP77) was over 2000 nM, the IC50 (SJSA-1) was 417 nM and the IC50 (SK-LMS-1) was over 2000 nM. The IC50 (SNB-75) was 1200 nM, the IC50 (SW684) was over 2000 nM and the IC50 (SW 954) was 401 nM. For the same molecule, the IC50 (SW982) was 784 nM, the IC50 (TE-1) was 1210 nM and the IC50 (A3-KAW) was 88.1 nM. The IC50 (A388) was over 2000 nM, the IC50 (A704) was 539 nM and the IC50 (AM-38) was over 2000 nM. It also gave an IC50 (Becker) of 658 nM, an IC50 (TE-6) of over 2000 nM and an IC50 (TE-9) of 1630 nM. It also gave an IC50 (TK-10) of 379 nM.

Molecule CN(NC(=O)CC(=O)NN(C)C(=S)c1ccccc1)C(=S)c1ccccc1 [ELESCLOMOL] has an IC50 (CTB-1) of 8.64 nM, an IC50 (Calu-6) of over 200 nM and an IC50 (D-502MG) of 25.8 nM. For the same molecule, the IC50 (DB) was 141 nM, the IC50 (DEL) was 19.2 nM and the IC50 (EM-2) was over 200 nM. For the same molecule, the IC50 (ES5) was 11.8 nM, the IC50 (ES6) was 40 nM and the IC50 (ES8) was 1.32 nM. The IC50 (EW-13) was 19.8 nM, the IC50 (GAK) was over 200 nM and the IC50 (HDLM-2) was over 200 nM. The IC50 (HT-144) was 13 nM, the IC50 (IST-MEL1) was 11.3 nM and the IC50 (K5) was 7 nM. For the same molecule, the IC50 (L-428) was over 200 nM, the IC50 (LB2518-MEL) was 66.9 nM and the IC50 (LB831-BLC) was 27.7 nM. It also gave an IC50 (LS-123) of 48.5 nM, an IC50 (LXF-289 cell line) of 14 nM and an IC50 (MEG-01) of 105 nM. For the same molecule, the IC50 (MHH-NB-11) was 69.1 nM, the IC50 (ML-2) was over 200 nM and the IC50 (MOLT-4) was 105 nM. The IC50 (MS-1) was 166 nM, the IC50 (NB13) was 23.1 nM and the IC50 (NB69) was 1.22 nM. The IC50 (NCI-H209) was over 200 nM, the IC50 (NCI-H82) was over 200 nM and the IC50 (NMC-G1) was 20.4 nM. For the same molecule, the IC50 (NTERA-2-cl-D1) was 19.4 nM, the IC50 (Ramos-2G6-4C10) was 12 nM and the IC50 (SF-539) was 24.4 nM. It also gave an IC50 (SHP77) of over 200 nM, an IC50 (SJSA-1) of 12.3 nM and an IC50 (SK-LMS-1) of over 200 nM. For the same molecule, the IC50 (SNB-75) was 105 nM, the IC50 (SW684) was over 200 nM and the IC50 (SW 954) was 14.2 nM. The IC50 (SW982) was 7.44 nM, the IC50 (TE-1) was 46 nM and the IC50 (A3-KAW) was 86.5 nM. It also gave an IC50 (A388) of over 200 nM, an IC50 (A704) of 27.5 nM and an IC50 (AM-38) of 169 nM. The IC50 (Becker) was 22.3 nM, the IC50 (TE-6) was 139 nM and the IC50 (TE-9) was 117 nM. The IC50 (TK-10) was 42.3 nM.

CC1(C)CCC(c2ccc(Cl)cc2)=C(CN2CCN(c3ccc(C(=O)NS(=O)(=O)c4ccc(N[C@H](CCN5CCOCC5)CSc5ccccc5)c(S(=O)(=O)C(F)(F)F)c4)cc3)CC2)C1 [NAVITOCLAX] gave an IC50 (CTB-1) of over 2000 nM, an IC50 (Calu-6) of over 2000 nM and an IC50 (D-502MG) of over 2000 nM. It also gave an IC50 (DB) of 571 nM, an IC50 (DEL) of 1750 nM and an IC50 (EM-2) of 199 nM. It also gave an IC50 (ES5) of over 2000 nM, an IC50 (ES6) of over 2000 nM and an IC50 (ES8) of over 2000 nM. For the same molecule, the IC50 (EW-13) was 583 nM, the IC50 (GAK) was over 2000 nM and the IC50 (HDLM-2) was over 2000 nM. It also gave an IC50 (HT-144) of over 2000 nM, an IC50 (IST-MEL1) of over 2000 nM and an IC50 (K5) of over 2000 nM. For the same molecule, the IC50 (L-428) was 1010 nM, the IC50 (LB2518-MEL) was over 2000 nM and the IC50 (LB831-BLC) was over 2000 nM. For the same molecule, the IC50 (LB996-RCC) was over 2000 nM, the IC50 (LS-123) was over 2000 nM and the IC50 (LXF-289 cell line) was over 2000 nM. The IC50 (MEG-01) was 583 nM, the IC50 (MHH-NB-11) was over 2000 nM and the IC50 (ML-2) was 19.8 nM. The IC50 (MOLT-4) was 152 nM, the IC50 (MS-1) was 469 nM and the IC50 (NB13) was 82 nM. The IC50 (NB69) was 1460 nM, the IC50 (NCI-H209) was 87 nM and the IC50 (NCI-H82) was over 2000 nM. For the same molecule, the IC50 (NMC-G1) was 811 nM, the IC50 (NTERA-2-cl-D1) was 500 nM and the IC50 (Ramos-2G6-4C10) was 1740 nM. For the same molecule, the IC50 (SF-539) was over 2000 nM, the IC50 (SHP77) was over 2000 nM and the IC50 (SJSA-1) was over 2000 nM. It also gave an IC50 (SNB-75) of over 2000 nM, an IC50 (SW684) of over 2000 nM and an IC50 (SW 954) of over 2000 nM. For the same molecule, the IC50 (SW982) was over 2000 nM, the IC50 (TE-1) was over 2000 nM and the IC50 (A3-KAW) was over 2000 nM. For the same molecule, the IC50 (A388) was 1690 nM, the IC50 (A704) was 427 nM and the IC50 (AM-38) was over 2000 nM. The IC50 (Becker) was over 2000 nM, the IC50 (TE-6) was over 2000 nM and the IC50 (TE-9) was over 2000 nM. For the same molecule, the IC50 (TGW) was 46.3 nM and the IC50 (TK-10) was over 2000 nM.

CO[C@@H]1[C@H](N(C)C(=O)c2ccccc2)C[C@H]2O[C@]1(C)n1c3ccccc3c3c4c(c5c6ccccc6n2c5c31)C(=O)NC4 [MIDOSTAURIN] gave an IC50 (LXF-289 cell line) of 330 nM, an IC50 (NB69) of over 512 nM and an IC50 (NTERA-2-cl-D1) of 209 nM. The IC50 (SK-LMS-1) was 353 nM.
